Measured values taken from ChEMBL document CHEMBL1201862, “PubChem BioAssay data set” (2004).
The source made the active and inactive calls.

Tests used:
[1] = A Cell Based Secondary Assay To Explore Cytotoxicity of Compounds that Sensitize Mycobacterium Tuberculosis to Beta-Lactam Antibiotics.; type: functional
[2] = target: T1, G-protein coupled receptor 55 (Homo sapiens, UniProt Q9Y2T6); experiment: GPR55 antagonists blocking LPI-driven arrestin recruitment, primary screen, imaging, U2OS, beta-arrestin-GFP, LPI agonist (AID 2013); type: functional;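 note: antagonist potency measured as reduced agonist-driven arrestin aggregation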
T1 sequence (Q9Y2T6 whole entry): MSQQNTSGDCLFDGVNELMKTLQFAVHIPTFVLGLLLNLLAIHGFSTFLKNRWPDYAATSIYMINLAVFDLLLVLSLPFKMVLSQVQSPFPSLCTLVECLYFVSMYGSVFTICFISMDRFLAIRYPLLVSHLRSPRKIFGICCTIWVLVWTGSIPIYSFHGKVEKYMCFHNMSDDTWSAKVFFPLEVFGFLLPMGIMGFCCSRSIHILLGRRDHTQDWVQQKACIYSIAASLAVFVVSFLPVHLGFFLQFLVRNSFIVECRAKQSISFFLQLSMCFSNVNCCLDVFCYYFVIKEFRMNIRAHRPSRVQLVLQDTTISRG

[3] = inhibitors of intracellular T. cruzi replication, confirmation, NIH3T3 host cells, beta-gal luminescence (AID 2044); type: functional, cell-based;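 note: intracellular parasites grown in NIH/3T3 mouse fibroblasts as host cells; luminescent beta-galactosidase reporter signal from transgenic T. cruzi replicating inside host cells; inhibitors lower the luminescence signal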
[4] = growth suppression of PTEN-null colon cells, dose response, cell-based, HCT116 PTEN knockout (AID 1047); type: functional;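 note: HCT116 colon tumor cells with PTEN knocked out; cells exposed to compound for 60 hours before readout; potency for loss of cell viability measured by luminescence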
[5] = cytotoxicity toward NIH3T3 fibroblasts, dose response, counter-screen, cell-based, ATP luminescence, mouse fibroblasts (AID 2010); type: functional;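 note: cells exposed to compound for about 90 hours before reading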
[6] = growth suppression of beta-catenin-knockout colon cells, dose response, cell-based, HCT116, human colon tumor (AID 1045); type: functional;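 note: HCT116 colon tumor cells with beta catenin knocked out; cells exposed to compound for 60 hours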
Cannabinoid receptor 1 [7] = target: T2, Cannabinoid receptor 1 (Homo sapiens, UniProt P21554); experiment: SAR analysis of antagonists of the Cannabinoid Receptor 1 using an Image-Based Assay - Set 2. [Related pubchem assays (depositor defined):AID2013, AID2026]; type: functional
T2 sequence (P21554 whole entry): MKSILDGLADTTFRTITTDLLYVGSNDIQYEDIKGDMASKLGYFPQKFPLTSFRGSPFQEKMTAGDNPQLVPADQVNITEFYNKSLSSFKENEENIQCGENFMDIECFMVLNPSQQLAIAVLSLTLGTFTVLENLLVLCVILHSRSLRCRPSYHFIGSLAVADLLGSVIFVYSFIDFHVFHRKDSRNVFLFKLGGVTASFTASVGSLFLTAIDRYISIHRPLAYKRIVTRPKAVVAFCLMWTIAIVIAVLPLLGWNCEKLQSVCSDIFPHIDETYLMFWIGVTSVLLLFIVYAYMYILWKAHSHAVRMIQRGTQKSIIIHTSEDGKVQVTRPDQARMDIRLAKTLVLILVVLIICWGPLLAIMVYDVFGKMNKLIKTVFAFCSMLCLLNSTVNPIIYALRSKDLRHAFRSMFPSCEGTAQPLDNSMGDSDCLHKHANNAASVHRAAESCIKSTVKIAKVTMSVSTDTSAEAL

[8] = target: T3, G-protein coupled receptor 35 (Homo sapiens, UniProt Q9HC97); experiment: SAR analysis of Agonists of the GPR35 Receptor using an Image-Based Assay - Set 2. [Related pubchem assays (depositor defined):AID2013, AID2026]; type: functional
T3 sequence (Q9HC97 whole entry): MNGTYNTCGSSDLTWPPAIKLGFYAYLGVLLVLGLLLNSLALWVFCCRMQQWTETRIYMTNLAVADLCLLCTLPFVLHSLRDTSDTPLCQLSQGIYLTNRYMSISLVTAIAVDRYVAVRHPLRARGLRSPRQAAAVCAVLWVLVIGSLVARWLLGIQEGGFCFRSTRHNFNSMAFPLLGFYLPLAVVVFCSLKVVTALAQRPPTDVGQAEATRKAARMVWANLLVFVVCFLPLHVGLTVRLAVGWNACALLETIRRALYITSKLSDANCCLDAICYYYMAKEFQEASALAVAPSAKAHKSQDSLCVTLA

Cannabinoid receptor 2 [9] = target: T4, Cannabinoid receptor 2 (Homo sapiens, UniProt P34972); experiment: SAR analysis of antagonists of the Cannabinoid Receptor 2 using an Image-Based Assay. [Related pubchem assays (depositor defined):AID2013, AID2026]; type: functional
T4 sequence (P34972 whole entry): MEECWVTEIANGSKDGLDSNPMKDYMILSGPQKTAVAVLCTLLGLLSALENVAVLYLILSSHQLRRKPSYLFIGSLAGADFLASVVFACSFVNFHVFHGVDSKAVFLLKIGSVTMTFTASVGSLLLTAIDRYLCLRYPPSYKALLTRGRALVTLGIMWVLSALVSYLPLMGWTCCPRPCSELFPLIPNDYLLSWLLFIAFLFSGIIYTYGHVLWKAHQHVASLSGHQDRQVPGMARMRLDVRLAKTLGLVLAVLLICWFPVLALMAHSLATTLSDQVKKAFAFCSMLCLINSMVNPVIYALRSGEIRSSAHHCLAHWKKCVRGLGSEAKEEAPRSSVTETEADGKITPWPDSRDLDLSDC

Cannabinoid receptor 1 [10] = target: T2, Cannabinoid receptor 1; experiment: SAR analysis of agonists of the Cannabinoid Receptor 1 using an Image-Based Assay - Set 2. [Related pubchem assays (depositor defined):AID2013, AID2026]; type: functional
[11] = target: T3, G-protein coupled receptor 35; experiment: SAR analysis of Antagonists of the GPR35 Receptor using an Image-Based Assay - Set 3. [Related pubchem assays (depositor defined):AID2013, AID2026]; type: functional
[12] = target: T1, G-protein coupled receptor 55; experiment: GPR55 antagonist potency of analogs, SAR follow-up, imaging, U2OS, beta-arrestin-GFP, LPI agonist, set 2 (AID 2820); type: functional
Cannabinoid receptor 2 [13] = target: T4, Cannabinoid receptor 2; experiment: SAR analysis of agonists of the Cannabinoid Receptor 2 using an Image-Based Assay. [Related pubchem assays (depositor defined):AID2013, AID2026]; type: functional
Cytochrome P450 2C9 = Cytochrome P450 2C9 (Homo sapiens, UniProt P11712)
[14] = target: T5, Delta-type opioid receptor (Homo sapiens, UniProt P41143); experiment: HTS Image-Based Screen for Antagonists of the DOR Receptor. [Related pubchem assays (depositor defined):AID1777, AID1785, AID1786, AID2133]; type: functional
T5 sequence (P41143 whole entry): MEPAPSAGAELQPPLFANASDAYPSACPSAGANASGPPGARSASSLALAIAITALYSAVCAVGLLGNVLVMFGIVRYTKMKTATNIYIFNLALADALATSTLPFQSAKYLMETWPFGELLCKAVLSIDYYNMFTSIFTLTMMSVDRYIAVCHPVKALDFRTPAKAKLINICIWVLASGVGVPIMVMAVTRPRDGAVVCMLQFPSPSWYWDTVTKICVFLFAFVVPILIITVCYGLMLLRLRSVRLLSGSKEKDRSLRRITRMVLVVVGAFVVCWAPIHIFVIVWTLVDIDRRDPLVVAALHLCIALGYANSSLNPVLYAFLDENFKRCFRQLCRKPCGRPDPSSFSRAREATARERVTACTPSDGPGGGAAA

Mu-type opioid receptor = Mu-type opioid receptor (Homo sapiens, UniProt P35372); experiment: HTS Image-Based Screen for Agonists of the MOR Receptor. [Related pubchem assays (depositor defined):AID1777, AID1785, AID1786, AID2133]; type: functional;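 note: imaging of beta-arrestin GFP recruitment into spots after receptor activation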
Mu-type opioid receptor, sequence (P35372 whole entry): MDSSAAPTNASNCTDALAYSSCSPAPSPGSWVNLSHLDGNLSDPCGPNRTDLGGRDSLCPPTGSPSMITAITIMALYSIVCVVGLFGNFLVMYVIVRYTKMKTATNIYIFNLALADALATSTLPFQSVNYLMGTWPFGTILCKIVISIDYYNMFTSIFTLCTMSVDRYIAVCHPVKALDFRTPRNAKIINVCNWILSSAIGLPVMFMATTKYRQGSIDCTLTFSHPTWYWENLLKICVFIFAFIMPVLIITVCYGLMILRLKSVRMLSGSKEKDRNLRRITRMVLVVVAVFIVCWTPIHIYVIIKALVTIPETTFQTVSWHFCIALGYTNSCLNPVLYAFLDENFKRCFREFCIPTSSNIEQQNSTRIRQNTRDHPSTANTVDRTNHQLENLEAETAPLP

[15] = system: Streptococcus sp. 'group A'; experiment: growth inhibition of control SK(-) GAS strain, dose response, counter-screen for streptokinase expression inhibitor project, luminescence, kanamycin, BacTiterGlo, confirmation (AID 1900); type: functional, organism-based
[16] = target: T5, Delta-type opioid receptor; experiment: HTS Image-Based Screen for Agonists of the DOR Receptor. [Related pubchem assays (depositor defined):AID1777, AID1786, AID2133]; type: functional
[17] = target: T6, Kappa-type opioid receptor (Homo sapiens, UniProt P41145); type: functional
T6 sequence (P41145 whole entry): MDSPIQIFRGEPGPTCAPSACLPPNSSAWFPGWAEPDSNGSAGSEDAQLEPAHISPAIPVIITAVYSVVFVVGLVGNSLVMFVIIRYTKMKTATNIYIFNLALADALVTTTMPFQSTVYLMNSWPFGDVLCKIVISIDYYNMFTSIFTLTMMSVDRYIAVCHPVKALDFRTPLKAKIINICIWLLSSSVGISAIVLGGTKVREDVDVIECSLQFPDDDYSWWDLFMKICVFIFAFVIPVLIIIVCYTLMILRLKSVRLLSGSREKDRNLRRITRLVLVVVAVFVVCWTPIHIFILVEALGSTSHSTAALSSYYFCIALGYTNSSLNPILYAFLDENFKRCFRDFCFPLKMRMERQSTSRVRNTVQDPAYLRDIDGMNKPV

[18] = target: Voltage-gated inwardly rectifying potassium channel KCNH2 (Homo sapiens, UniProt Q12809); experiment: hERG protection from proarrhythmic block, potency, dose response, cell-based, thallium flux (AID 2121); type: ADME
Voltage-gated inwardly rectifying potassium channel KCNH2, sequence (Q12809 whole entry): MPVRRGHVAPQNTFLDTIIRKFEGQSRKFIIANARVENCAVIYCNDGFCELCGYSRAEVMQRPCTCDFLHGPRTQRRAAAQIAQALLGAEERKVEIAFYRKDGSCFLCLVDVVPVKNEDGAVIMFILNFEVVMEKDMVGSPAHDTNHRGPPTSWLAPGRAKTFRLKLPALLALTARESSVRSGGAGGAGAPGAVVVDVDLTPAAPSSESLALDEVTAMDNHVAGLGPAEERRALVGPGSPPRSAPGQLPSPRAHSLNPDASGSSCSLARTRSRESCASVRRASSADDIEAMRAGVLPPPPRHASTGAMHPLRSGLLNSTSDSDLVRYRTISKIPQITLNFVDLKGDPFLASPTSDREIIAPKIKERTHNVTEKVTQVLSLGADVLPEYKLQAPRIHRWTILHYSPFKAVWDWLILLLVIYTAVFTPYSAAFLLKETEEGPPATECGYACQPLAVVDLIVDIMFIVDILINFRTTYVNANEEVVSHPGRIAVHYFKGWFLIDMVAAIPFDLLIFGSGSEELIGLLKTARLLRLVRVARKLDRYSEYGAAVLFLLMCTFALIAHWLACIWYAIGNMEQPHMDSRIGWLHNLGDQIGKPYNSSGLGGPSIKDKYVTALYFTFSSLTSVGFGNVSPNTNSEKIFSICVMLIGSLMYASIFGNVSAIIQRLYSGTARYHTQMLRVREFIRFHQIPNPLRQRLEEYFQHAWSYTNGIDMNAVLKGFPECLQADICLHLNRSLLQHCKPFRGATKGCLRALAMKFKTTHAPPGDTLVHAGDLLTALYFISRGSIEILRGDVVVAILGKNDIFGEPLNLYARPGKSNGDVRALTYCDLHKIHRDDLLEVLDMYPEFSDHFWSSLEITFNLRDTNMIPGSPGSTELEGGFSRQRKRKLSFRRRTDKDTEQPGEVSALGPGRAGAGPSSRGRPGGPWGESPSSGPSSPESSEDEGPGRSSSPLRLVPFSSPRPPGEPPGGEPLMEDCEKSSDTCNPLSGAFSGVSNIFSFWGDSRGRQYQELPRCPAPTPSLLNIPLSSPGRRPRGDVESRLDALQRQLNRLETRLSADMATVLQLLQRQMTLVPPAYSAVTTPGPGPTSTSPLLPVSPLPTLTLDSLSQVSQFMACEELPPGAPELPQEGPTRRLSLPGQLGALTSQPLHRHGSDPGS

Beta-galactosidase = Beta-galactosidase (Escherichia coli, UniProt Q8VNN2); type: functional
Beta-galactosidase, sequence (Q8VNN2 whole entry): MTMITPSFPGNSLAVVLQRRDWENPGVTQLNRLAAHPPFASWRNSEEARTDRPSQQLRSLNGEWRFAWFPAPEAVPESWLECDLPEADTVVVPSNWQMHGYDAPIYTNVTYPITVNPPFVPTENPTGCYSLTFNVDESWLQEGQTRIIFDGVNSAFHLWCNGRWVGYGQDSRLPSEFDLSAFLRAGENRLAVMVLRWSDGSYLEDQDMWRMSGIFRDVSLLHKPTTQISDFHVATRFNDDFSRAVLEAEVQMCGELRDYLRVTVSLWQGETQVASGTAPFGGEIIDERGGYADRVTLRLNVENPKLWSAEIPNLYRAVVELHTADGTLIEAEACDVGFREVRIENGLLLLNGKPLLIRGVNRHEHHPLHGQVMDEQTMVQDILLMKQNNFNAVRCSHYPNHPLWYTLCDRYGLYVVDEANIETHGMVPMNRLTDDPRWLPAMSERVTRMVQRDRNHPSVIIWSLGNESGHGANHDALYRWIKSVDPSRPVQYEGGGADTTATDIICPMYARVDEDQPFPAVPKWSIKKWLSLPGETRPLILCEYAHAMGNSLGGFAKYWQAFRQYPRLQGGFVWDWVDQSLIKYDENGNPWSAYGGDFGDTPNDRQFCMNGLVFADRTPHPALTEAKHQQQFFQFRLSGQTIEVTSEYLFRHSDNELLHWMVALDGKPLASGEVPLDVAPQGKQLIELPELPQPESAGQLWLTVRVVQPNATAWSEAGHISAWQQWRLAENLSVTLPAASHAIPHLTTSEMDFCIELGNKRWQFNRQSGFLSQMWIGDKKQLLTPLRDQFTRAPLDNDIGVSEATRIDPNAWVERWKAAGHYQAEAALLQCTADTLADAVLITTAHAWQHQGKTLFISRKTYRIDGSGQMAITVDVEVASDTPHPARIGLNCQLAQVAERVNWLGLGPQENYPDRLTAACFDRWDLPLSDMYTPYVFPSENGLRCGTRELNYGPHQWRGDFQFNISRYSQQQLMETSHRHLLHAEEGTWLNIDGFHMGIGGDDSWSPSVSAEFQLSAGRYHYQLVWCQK

[19] = target: T6, Kappa-type opioid receptor; type: functional; remark: listed apart in the source
Streptococcus = experiment: Group A Streptococcus viability loss, dose response, counter-screen for streptokinase expression inhibitor project, luminescence, BacTiterGlo (AID 1915); type: functional, organism-based;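 note: potency for reduction of bacterial viability or growth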
[20] = target: T7, Heat shock factor protein 1 (Mus musculus, UniProt P38532); experiment: inhibition of MG132-induced HSE-luciferase signal, confirmation, cell-based, NIH3T3, luminescence, dose retest (AID 2382); type: functional;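 note: NIH3T3 fibroblasts with HSF1-driven luciferase reporter stressed by proteasome inhibitor MG132; luminescence from HSF1-driven luciferase expression after 8 hours of MG132 stress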
T7 sequence (P38532 whole entry): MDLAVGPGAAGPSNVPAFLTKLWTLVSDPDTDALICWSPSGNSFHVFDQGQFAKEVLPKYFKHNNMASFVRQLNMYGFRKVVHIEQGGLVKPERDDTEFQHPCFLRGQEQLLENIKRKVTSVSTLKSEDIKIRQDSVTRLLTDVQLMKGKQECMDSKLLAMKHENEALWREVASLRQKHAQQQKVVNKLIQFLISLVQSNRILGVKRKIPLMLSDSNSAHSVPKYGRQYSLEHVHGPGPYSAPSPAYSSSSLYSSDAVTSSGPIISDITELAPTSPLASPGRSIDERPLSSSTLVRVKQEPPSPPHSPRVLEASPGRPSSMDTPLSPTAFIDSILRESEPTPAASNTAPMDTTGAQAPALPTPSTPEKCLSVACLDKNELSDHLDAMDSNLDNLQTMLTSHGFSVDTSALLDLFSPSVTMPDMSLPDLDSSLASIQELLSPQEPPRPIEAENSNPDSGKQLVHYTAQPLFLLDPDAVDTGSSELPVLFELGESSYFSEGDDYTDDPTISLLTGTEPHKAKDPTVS

[21] = Luminescence Cell-Based Dose Retest to Confirm Inhibitors of Cancer Stem Cells. [Related pubchem assays (depositor defined):AID2717, AID2721]; type: functional; conditions: Homo sapiens
[22] = mammalian cell cytotoxicity, dose response, cytotoxicity control, plate reader, cherry-pick samples (AID 504397); type: functional, cell-based
[23] = Luminescence Cell-Based Dose Response HTS to Identify Inhibitors of Luciferase Translation or Activity in H4-C Neuroglioblastoma Cells. [Related pubchem assays: 1813 (Primary HTS), 1827 (Project Summary)]; type: functional
[24] = Luminescence Cell-Based Dose Response HTS to Identify Activators of Luciferase Translation or Activity in H4-C Neuroglioblastoma Cells. [Related pubchem assays: 1829 (Project Summary), 1814 (Primary HTS)]; type: functional
[25] = inhibitors of firefly luciferase expression or activity, dose response, H4 neuroglioma cells, luminescence (AID 1990); type: functional, cell-based
[26] = Luminescence Cell-Based Dose Retest to Confirm Activators of 5'UTR Stem-Loop Driven Alpha-Synuclein mRNA Translation in H4 Neuroglioblastoma Cells. [Related pubchem assays (depositor defined):AID1813, AID1829]; type: functional
[27] = Luminescence Cell-Based Dose Response HTS to Identify Activators of 5'UTR Stem-Loop Driven Prion Protein mRNA Translation in H4-C Neuroglioblastoma Cells. [Related pubchem assays: 1829 (Project Summary), 1814 (Primary HTS)]; type: functional
[28] = Luminescence Cell-Based Dose HTS Response to Identify Inhibitors of 5'UTR Stem-Loop Driven Prion Protein mRNA Translation in H4-C Neuroglioblastoma Cells. [Related pubchem assays (depositor defined):AID1814, AID1827]; type: functional
[29] = inhibitors of SNCA 5'UTR-driven reporter translation, confirmation, H4 neuroglioma cells, luminescence (AID 1988); type: functional, cell-based
[30] = Luminescence Cell-Based Dose Confirmation HTS to Identify Inhibitors of 5'UTR Stem-Loop Driven Alpha-Synuclein mRNA Translation in H4 Neuroglioblastoma Cells. [Related pubchem assays: 1827 (Project Summary), 1813 (Primary HTS)]; type: functional
[31] = cytotoxicity in HEK-293T cells, dose response, cytotoxicity control for TCR NF-kB inhibitor project, luminescence, T-cell screen hits (AID 489026); type: functional, cell-based;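 note: cells exposed to compound about 14 hours before the viability readout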
[32] = target: T3, G-protein coupled receptor 35; experiment: SAR analysis of Agonists of the GPR35 Receptor using an Image-Based Assay - Set 4. [Related pubchem assays (depositor defined):AID2013, AID2026]; type: functional
Cannabinoid receptor 1 [33] = target: T2, Cannabinoid receptor 1; experiment: SAR analysis of agonists of the Cannabinoid Receptor 1 using an Image-Based Assay - Set 4. [Related pubchem assays (depositor defined):AID2013, AID2026]; type: functional
[34] = target: T3, G-protein coupled receptor 35; experiment: SAR analysis of Antagonists of the GPR35 Receptor using an Image-Based Assay - Set 6. [Related pubchem assays (depositor defined):AID2013, AID2026]; type: functional
Cannabinoid receptor 1 [35] = target: T2, Cannabinoid receptor 1; experiment: SAR analysis of antagonists of the Cannabinoid Receptor 1 using an Image-Based Assay - Set 4. [Related pubchem assays (depositor defined):AID2013, AID2026]; type: functional
[36] = target: T1, G-protein coupled receptor 55; experiment: SAR Analysis of Selective Antagonists of GPR55 using an Image-Based Assay - Set 4. [Related pubchem assays (depositor defined):AID2013, AID2026]; type: functional
Cannabinoid receptor 2 [37] = target: T4, Cannabinoid receptor 2; experiment: SAR analysis of antagonists of the Cannabinoid Receptor 2 using an Image-Based Assay - Set 3. [Related pubchem assays (depositor defined):AID2013, AID2026]; type: functional
Cannabinoid receptor 2 [38] = target: T4, Cannabinoid receptor 2; experiment: SAR analysis of agonists of the Cannabinoid Receptor 2 using an Image-Based Assay - Set 3. [Related pubchem assays (depositor defined):AID2013, AID2026]; type: functional
Bcl-2-related protein A1 = target: T8, Bcl-2-related protein A1 (Mus musculus, UniProt Q07440); type: functional;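 note: confirmatory dose–response counterscreen on Bfl-1, used to check hits from a UBC13 polyubiquitin inhibitor campaign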
T8 sequence (Q07440 whole entry): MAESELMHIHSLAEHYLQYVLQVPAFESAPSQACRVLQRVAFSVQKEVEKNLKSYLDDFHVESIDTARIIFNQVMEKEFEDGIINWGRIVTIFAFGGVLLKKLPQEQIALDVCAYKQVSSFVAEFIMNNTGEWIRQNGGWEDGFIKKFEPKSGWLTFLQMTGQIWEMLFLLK

[39] = target: T9, Ubiquitin-conjugating enzyme E2 N (Homo sapiens, UniProt P61088); type: functional
T9 sequence (P61088 whole entry): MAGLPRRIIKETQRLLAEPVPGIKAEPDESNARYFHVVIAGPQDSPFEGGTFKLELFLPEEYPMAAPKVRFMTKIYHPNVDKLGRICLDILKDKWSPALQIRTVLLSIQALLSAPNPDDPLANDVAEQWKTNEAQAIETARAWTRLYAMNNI

[40] = target: T9, Ubiquitin-conjugating enzyme E2 N; type: functional; remark: listed apart in the source

## CC(C)(C)NS(=O)(=O)c1ccc(NC(=O)C(Sc2ccccc2)c2ccccc2)cc1 (stereo unspecified)
[1]
  CC50: 27.1 µM (active)
[2]
  IC50: 0.678 µM (active)
[3]
  EC50: 2.31 µM (active)
[4]
  EC50: 14.5 µM (active)
[5]
  EC50: > 60 µM (not active)
[6]
  EC50: 14.7 µM (active)
Cannabinoid receptor 1 [7]
  IC50: 2.71 µM (active)
[8]
  EC50: > 32 µM (inactive)
Cannabinoid receptor 2 [9]
  IC50: > 32 µM (inactive)
Cannabinoid receptor 1 [10]
  EC50: > 32 µM (inactive)
[11]
  IC50: > 32 µM (inactive)
[12]
  IC50: 0.978 µM (active)
Cannabinoid receptor 2 [13]
  EC50: > 32 µM (inactive)
Cytochrome P450 2C9
  AC50: 2 µM (inconclusive)

## COc1ccc(/C=C2\SC(=N)N(c3nccs3)C2=O)cc1OC
[14]
  IC50: > 32 µM (inactive)
Mu-type opioid receptor
  EC50: > 32 µM (inactive)
[15]
  EC50: 1.69 µM (active)
[16]
  EC50: > 32 µM (inactive)
[3]
  EC50: 3.66 µM (active)
[17]
  IC50: 7.22 µM (active)
[18]
  EC50: 84.7 µM (active)
Beta-galactosidase
  EC50: > 31.5 µM (inactive)
[19]
  IC50: > 32 µM
Streptococcus
  EC50: 3.61 µM (active)

## c1ccc(CNc2nc(N3CCN(Cc4ccccc4)CC3)nc3ccccc23)cc1
[20]
  EC50: > 195 µM (not active)
[21]
  AC50: 3.43 µM (active)
[22]
  AC50: 66.2 µM (active)

## COc1ccc(/C=C/C(=O)c2cc(F)ccc2OC(=O)c2ccccc2)cc1OC
[23]
  EC50: 0.697 µM (active)
[24]
  EC50: 0.697 µM (inconclusive)
[25]
  EC50: 12.8 µM (active)
[26]
  EC50: 0.666 µM (inconclusive)
[27]
  EC50: 0.699 µM (inconclusive)
[28]
  EC50: 0.699 µM (active)
[29]
  EC50: < 0.195 µM (active)
[30]
  EC50: 0.666 µM (active)
[31]
  IC50: > 80 µM (inactive)

## O=C(N1CCC(n2nc(-c3ccccc3)oc2=O)CC1)C1(c2ccccc2)CCCC1
[32]
  EC50: > 32 µM (inactive)
Cannabinoid receptor 1 [33]
  EC50: > 32 µM (inactive)
[34]
  IC50: > 32 µM (inactive)
Cannabinoid receptor 1 [35]
  IC50: 1.98 µM (active)
[36]
  IC50: 2.7 µM (active)
Cannabinoid receptor 2 [37]
  IC50: 14 µM (inactive)
Cannabinoid receptor 2 [38]
  EC50: > 32 µM (inactive)

## C/C(=N\NC(=O)CSCc1ccc([N+](=O)[O-])cc1)c1ccccc1
Bcl-2-related protein A1
  IC50: > 20 µM (inactive)
[39]
  IC50: 6.86 µM (active)
[40]
  IC50: 4.9 µM (active)
